In ChEMBL document CHEMBL3045576, “Azadirachtin avoidance by larvae and adult females of the tomato leafminer Tuta absoluta” (2013):
Calls of active or inactive are those of the source. The rule behind the calls is not given here.

Legend:
Tuta absoluta [1] = test: Egg-laying avoidance activity against non-sexed adult stage of Tuta absoluta Araguari in compound-pretreated tomato leaves assessed as decrease in number of eggs laid at LC10 to LC90 concentration measured for 2 days by no-choice test; type: functional, organism-based
Tuta absoluta [2] = test: Walking avoidance activity against second-instar larval stage of Tuta absoluta Araguari infested compound-pretreated filter paper assessed as effect on walking time at LC90 concentration measured for 10 min; type: functional, organism-based
Tuta absoluta [3] = test: Egg-laying avoidance activity against non-sexed adult stage of Tuta absoluta Araguari in compound-pretreated tomato leaves assessed as decrease in number of eggs laid at equal to and greater than LC50 concentration measured for 2 days by free-choice test; type: functional, organism-based
Tuta absoluta [4] = test: Resistance ratio of LC10 for Tuta absoluta Vicosa larvae to LC10 for Tuta absoluta Araguari larvae; type: functional
Tuta absoluta [5] = test: Insecticidal activity against Tuta absoluta Araguari larvae in compound-pre-treated tomato leaves assessed as mortality after 144 hr; type: functional
Tuta absoluta [6] = test: Resistance ratio of LC90 for Tuta absoluta Vicosa larvae to LC90 for Tuta absoluta Araguari larvae; type: functional
Tuta absoluta [7] = test: Walking avoidance activity against second-instar larval stage of Tuta absoluta Vicosa infested compound-pretreated filter paper assessed as effect on walking time at LC90 concentration measured for 10 min; type: functional, organism-based
Tuta absoluta [8] = test: Walking avoidance activity against second-instar larval stage of Tuta absoluta Vicosa in compound-pretreated tomato leaves assessed as decrease in walking time at LC50 to LC90 concentration measured after 6 hr; type: functional, organism-based
Tuta absoluta [9] = test: Walking avoidance activity against second-instar larval stage of Tuta absoluta Vicosa in compound-pretreated tomato leaves assessed as decrease in walking time at LC10 concentration measured after 6 hr; type: functional, organism-based
Tuta absoluta [10] = test: Walking avoidance activity against second-instar larval stage of Tuta absoluta Araguari in compound-pretreated tomato leaves assessed as decrease in walking time at LC50 to LC90 concentration measured after 6 hr; type: functional, organism-based
Tuta absoluta [11] = test: Walking avoidance activity against fourth-instar larval stage of Tuta absoluta Vicosa infested compound-pretreated filter paper assessed as effect on walking time at LC90 concentration measured for 10 min; type: functional, organism-based
Tuta absoluta [12] = test: Insecticidal activity against Tuta absoluta Vicosa larvae in compound-pre-treated tomato leaves assessed as mortality after 144 hr; type: functional
Tuta absoluta [13] = test: Effect on leaf mining activity of Tuta absoluta Araguari second-instar larvae in compound-pretreated tomato leaves assessed as length of time required to mine the leaf at LC10 to LC90 concentration; type: functional
Tuta absoluta [14] = test: Egg-laying avoidance activity against non-sexed adult stage of Tuta absoluta Vicosa in compound-pretreated tomato leaves assessed as decrease in number of eggs laid at LC10 to LC90 concentration measured for 2 days by no-choice test; type: functional, organism-based
Tuta absoluta [15] = test: Insecticidal activity against second-instar larval stage of Tuta absoluta in tomato leaves assessed as survival rate at 1.7 mg ai/L incubated for 5 s prior to larval infestation after 9 days (reference value: >60%); type: functional; settings: 216 h
Tuta absoluta [16] = test: Egg-laying avoidance activity against non-sexed adult stage of Tuta absoluta Vicosa in compound-pretreated tomato leaves assessed as decrease in number of eggs laid measured for 2 days by free-choice test; type: functional, organism-based
Tuta absoluta [17] = test: Walking avoidance activity against second-instar larval stage of Tuta absoluta Araguari in compound-pretreated tomato leaves assessed as decrease in walking time at LC10 concentration measured after 6 hr; type: functional, organism-based
Tuta absoluta [18] = test: Effect on leaf mining activity of Tuta absoluta Vicosa second-instar larvae in compound-pretreated tomato leaves assessed as length of time required to mine the leaf at LC10 to LC90 concentration; type: functional
Tuta absoluta [19] = test: Insecticidal activity against second-instar larval stage of Tuta absoluta in tomato leaves assessed as delay in larval development at 27 mg ai/L incubated for 5 s prior to larval infestation after 9 days; type: functional, organism-based
Tuta absoluta [20] = test: Resistance ratio of LC50 for Tuta absoluta Vicosa larvae to LC50 for Tuta absoluta Araguari larvae; type: functional
Tuta absoluta [21] = test: Walking avoidance activity against fourth-instar larval stage of Tuta absoluta Araguari infested compound-pretreated filter paper assessed as effect on walking time at LC90 concentration measured for 10 min; type: functional, organism-based
Tuta absoluta [22] = test: Insecticidal activity against second-instar larval stage of Tuta absoluta in tomato leaves assessed as survival rate at 27 mg ai/L incubated for 5 s prior to larval infestation after 9 days (reference value: >60%); type: functional; settings: 216 h

Compound: C/C=C(\C)C(=O)O[C@H]1C[C@@H](OC(C)=O)[C@@]2(C(=O)OC)CO[C@H]3[C@@H](O)[C@@](C)([C@]45O[C@@]4(C)[C@@H]4C[C@H]5O[C@@H]5OC=C[C@@]54O)[C@H]4[C@]1(CO[C@]4(O)C(=O)OC)[C@@H]32 [AZADIRACHTIN A]
- inhibition (Tuta absoluta [1]): inactive
- Activity (Tuta absoluta [2]): inactive
- inhibition (Tuta absoluta [3]): Active
- Ratio (Tuta absoluta [4]): 1.65
- LC10 (Tuta absoluta [5]): 0.97 mgAi/L
- LC50 (Tuta absoluta [5]): 5.62 mgAi/L
- LC90 (Tuta absoluta [5]): 32.71 mgAi/L
- Ratio (Tuta absoluta [6]): 1.96
- Activity (Tuta absoluta [7]): inactive
- inhibition (Tuta absoluta [8]): Active
- inhibition (Tuta absoluta [9]): inactive
- inhibition (Tuta absoluta [10]): Active
- Activity (Tuta absoluta [11]): inactive
- LC10 (Tuta absoluta [12]): 1.59 mgAi/L
- LC50 (Tuta absoluta [12]): 10.09 mgAi/L
- LC90 (Tuta absoluta [12]): 64.06 mgAi/L
- Time (Tuta absoluta [13]): 38.72 min
- inhibition (Tuta absoluta [14]): inactive
- survival at 1.7 µg/mL (Tuta absoluta [15]): 25%
- inhibition (Tuta absoluta [16]): Dose-dependent effect
- inhibition (Tuta absoluta [17]): inactive
- Time (Tuta absoluta [18]): 33.56 min
- Activity (Tuta absoluta [19]): Active
- Ratio (Tuta absoluta [20]): 1.8
- Activity (Tuta absoluta [21]): inactive
- survival at 27 µg/mL (Tuta absoluta [22]): < 4%
